Results as given in US20060025346A1, “Permeability enhancer” (priority 2004, published 2006).
Entries after “also recorded” stand apart in the source; their conditions may differ.

Legend:
[1] = tested on: MDCK cells
[2] = tested on: Caco-2 cell monolayer; conditions: literature reports; cited from earlier work

CCCCCCCCCC(=O)[O-].[Na+] [sodium caprate]
permeability enhancing effect on high molecular weight model substance FD-10 (relative Papp) [1]: nonspecifically increased the permeability; also recorded: marked permeability enhancing effect
permeability enhancing effect on low molecular weight model substance Flu (relative Papp) [1]: nonspecifically increased the permeability; also recorded: marked permeability enhancing effect
permeability enhancing effect on low molecular weight model substance LY (relative Papp) [1]: nonspecifically increased the permeability; also recorded: marked permeability enhancing effect
side effects / cell damage due to relatively strong ability to open tight junctions [2]: risk of cell damage have been observed
